Experiment: Comparison of water solubilities at 20° C.
Assay type: physicochemical
Protocol: Comparison of Water Solubilities at 20° C.

SMILES | Water solubility [µg/mL]
CCP(C)(=O)[O-].CCP(C)(=O)[O-].CCP(C)(=O)[O-].[Al+3] [MEPAL, Aluminum salt of methylethylphosphinic acid] | 6300
O=P1([O-])CCCC1.O=P1([O-])CCCC1.O=P1([O-])CCCC1.[Al+3] [PHOLAL, Aluminum salt of 1-hydroxy-1H-phospholane 1-oxide] | 4300

Reference: patent publication US6509401B1, “Synergistic flame retardant combination of salts of 1-hydroxy-dihydrophosphole oxides and/or 1-hydroxyphospholane oxides and nitrogen compounds for use in polymers” (Clariant GmbH, priority 1997, dated 2003)
